# Calls of active or inactive are those of the source. The rule behind the calls is not given here.
# Legend:
# Bipolaris oryzae [1] = test: Antifungal activity against Bipolaris oryzae assessed as colony color change after 2 to 7 days; format: functional, organism-based
# Sclerotinia sclerotiorum [2] = test: Antifungal activity against Sclerotinia sclerotiorum assessed as growth inhibition after 2 to 7 days; format: functional; settings: read-out: ED50 (the source's name)
# Penicillium digitatum [3] = test: Antifungal activity against Penicillium digitatum assessed as colony color change after 2 to 7 days; format: functional, organism-based
# Pyricularia oryzae [4] = test: Inhibition of appressorium formation in Magnaporthe oryzae up to 40 ppm after 24 hr; format: functional, organism-based
# Pyricularia grisea [5] = test: Inhibition of Magnaporthe grisea infection of rice plant at 0.01 % sprayed onto inoculated rice seedlings at every 2 hr from 2 to 12 hr after inoculation measured after 8 hr; format: functional, organism-based
# Verticillium dahliae [6] = test: Antifungal activity against Verticillium dahliae assessed as colony color change after 2 to 7 days; format: functional, organism-based
# Fusarium fujikuroi [7] = test: Antifungal activity against Fusarium fujikuroi assessed as growth inhibition after 2 to 7 days; format: functional; settings: read-out: ED50 (the source's name)
# Botrytis cinerea [8] = test: Antifungal activity against Botryotinia fuckeliana assessed as colony color change after 2 to 7 days; format: functional, organism-based
# [9] = test system: Pectobacterium carotovorum; test: Antibacterial activity against Pectobacterium carotovorum assessed as growth inhibition after 2 days; format: functional; settings: 48 h, read-out: ED50 (the source's name)
# [10] = test system: Pectobacterium carotovorum; test: Antibacterial activity against Pectobacterium carotovorum assessed as colony color change after 2 days; format: functional, organism-based
# Pyricularia grisea [11] = test: Inhibition of Magnaporthe grisea infection of rice plant at 0.01 % sprayed onto inoculated rice seedlings at every 2 hr from 2 to 12 hr after inoculation measured after 6 hr; format: functional, organism-based
# Bipolaris oryzae [12] = test: Antifungal activity against Bipolaris oryzae assessed as growth inhibition after 2 to 7 days; format: functional; settings: read-out: ED50 (the source's name)
# Verticillium dahliae [13] = test: Antifungal activity against Verticillium dahliae assessed as growth inhibition after 2 to 7 days; format: functional; settings: read-out: ED50 (the source's name)
# [14] = test system: Xanthomonas campestris pv. oryzae; test: Antibacterial activity against Xanthomonas campestris pv. oryzae assessed as colony color change after 2 days; format: functional, organism-based
# Pythium [15] = test: Antifungal activity against Pythium sp. assessed as growth inhibition after 2 to 7 days; format: functional; settings: read-out: ED50 (the source's name)
# [16] = test system: Botryosphaeria kuwatsukai; test: Antifungal activity against Botryosphaeria berengeriana f.sp. pyricola assessed as growth inhibition after 2 to 7 days; format: functional; settings: read-out: ED50 (the source's name)
# Pythium [17] = test: Antifungal activity against Pythium sp. assessed as colony color change after 2 to 7 days; format: functional, organism-based
# Pyricularia oryzae [18] = test: Inhibition of dark brown pigmentation formation in appressorium cells of Magnaporthe oryzae at > 0.1 ppm after 24 hr; format: functional, organism-based
# Pyricularia grisea [19] = test: Inhibition of Magnaporthe grisea infection of rice plant at 0.01 % sprayed onto inoculated rice seedlings at every 2 hr from 2 to 12 hr after inoculation measured after 10 hr; format: functional, organism-based
# Cytospora ceratosperma [20] = test: Antifungal activity against Valsa ceratosperma assessed as colony color change after 2 to 7 days; format: functional, organism-based
# [21] = test system: Botryosphaeria kuwatsukai; test: Antifungal activity against Botryosphaeria berengeriana f.sp. pyricola assessed as colony color change after 2 to 7 days; format: functional, organism-based
# Alternaria brassicicola [22] = test: Antifungal activity against Alternaria brassicicola assessed as growth inhibition after 2 to 7 days; format: functional; settings: read-out: ED50 (the source's name)
# Alternaria brassicicola [23] = test: Antifungal activity against Alternaria brassicicola assessed as colony color change after 2 to 7 days; format: functional, organism-based
# Thanatephorus cucumeris [24] = test: Antifungal activity against Thanatephorus cucumeris assessed as growth inhibition after 2 to 7 days; format: functional; settings: read-out: ED50 (the source's name)
# Pseudomonas [25] = test: Antibacterial activity against Pseudomonas lachrymans assessed as growth inhibition after 2 days; format: functional; settings: 48 h, read-out: ED50 (the source's name)
# Pseudomonas [26] = test: Antibacterial activity against Pseudomonas lachrymans assessed as colony color change after 2 days; format: functional, organism-based
# [27] = test system: Fusarium oxysporum f. sp. lycopersici; test: Antifungal activity against Fusarium oxysporum f. sp. lycopersici assessed as colony colour change after 2 to 7 days; format: functional, organism-based
# Colletotrichum lagenaria [28] = test: Antifungal activity against Colletotrichum lagenaria assessed as growth inhibition after 2 to 7 days; format: functional; settings: read-out: ED50 (the source's name)
# Cytospora ceratosperma [29] = test: Antifungal activity against Valsa ceratosperma assessed as growth inhibition after 2 to 7 days; format: functional; settings: read-out: ED50 (the source's name)
# Penicillium digitatum [30] = test: Antifungal activity against Penicillium digitatum assessed as growth inhibition after 2 to 7 days; format: functional; settings: read-out: ED50 (the source's name)
# Nakataea oryzae [31] = test: Antifungal activity against Magnaporthe salvinii assessed as growth inhibition after 2 to 7 days; format: functional; settings: read-out: ED50 (the source's name)
# Thanatephorus cucumeris [32] = test: Antifungal activity against Thanatephorus cucumeris assessed as colony color change after 2 to 7 days; format: functional, organism-based
# Phytophthora nicotianae [33] = test: Antifungal activity against Phytophthora nicotianae var. parasitica assessed as growth inhibition after 2 to 7 days; format: functional; settings: read-out: ED50 (the source's name)
# Nakataea oryzae [34] = test: Antifungal activity against Magnaporthe salvinii assessed as colony color change after 2 to 7 days; format: functional, organism-based
# Pyricularia oryzae [35] = test: Antifungal activity against Magnaporthe oryzae assessed as growth inhibition after 2 to 7 days; format: functional; settings: read-out: ED50 (the source's name)
# Phytophthora nicotianae [36] = test: Antifungal activity against Phytophthora nicotianae var. parasitica assessed as colony color change after 2 to 7 days; format: functional, organism-based
# [37] = test system: Xanthomonas campestris pv. oryzae; test: Antibacterial activity against Xanthomonas campestris pv. oryzae assessed as growth inhibition after 2 days; format: functional; settings: 48 h, read-out: ED50 (the source's name)
# Fusarium fujikuroi [38] = test: Antifungal activity against Fusarium fujikuroi assessed as colony color change after 2 to 7 days; format: functional, organism-based
# Botrytis cinerea [39] = test: Antifungal activity against Botryotinia fuckeliana assessed as growth inhibition after 2 to 7 days; format: functional; settings: read-out: ED50 (the source's name)
# Pyricularia oryzae [40] = test: Inhibition of spore germination in Magnaporthe oryzae up to 40 ppm after 24 hr; format: functional, organism-based
# Colletotrichum lagenaria [41] = test: Antifungal activity against Colletotrichum lagenaria assessed as colony color change after 2 to 7 days; format: functional, organism-based
# Sclerotinia sclerotiorum [42] = test: Antifungal activity against Sclerotinia sclerotiorum assessed as colony color change after 2 to 7 days; format: functional, organism-based
# Pyricularia oryzae [43] = test: Antifungal activity against Magnaporthe oryzae assessed as colony color change after 2 to 7 days; format: functional, organism-based
# [44] = test system: Fusarium oxysporum f. sp. lycopersici; test: Antifungal activity against Fusarium oxysporum f. sp. lycopersici assessed as growth inhibition after 2 to 7 days; format: functional; settings: read-out: ED50 (the source's name)
smiles,measurement,setting,value
CC[C@]1(C(=O)N[C@H](C)c2ccc(Cl)cc2)[C@H](C)C1(Cl)Cl (relative stereo) [trans-Carpropamid],Activity,Bipolaris oryzae [1],Active
same,EC50,Sclerotinia sclerotiorum [2],> 200 µg/mL
same,Activity,Penicillium digitatum [3],inactive
same,inhibition,Pyricularia oryzae [4],inactive
same,inhibition,Pyricularia grisea [5],inactive
same,Activity,Verticillium dahliae [6],Active
same,EC50,Fusarium fujikuroi [7],> 200 µg/mL
same,Activity,Botrytis cinerea [8],inactive
same,EC50,[9],> 200 µg/mL
same,Activity,[10],inactive
same,inhibition,Pyricularia grisea [11],Active
same,EC50,Bipolaris oryzae [12],> 200 µg/mL
same,EC50,Verticillium dahliae [13],> 200 µg/mL
same,Activity,[14],inactive
same,EC50,Pythium [15],200 µg/mL
same,EC50,[16],> 200 µg/mL
same,Activity,Pythium [17],inactive
same,inhibition,Pyricularia oryzae [18],inactive
same,inhibition,Pyricularia grisea [19],inactive
same,Activity,Cytospora ceratosperma [20],Active
same,Activity,[21],Active
same,EC50,Alternaria brassicicola [22],> 200 µg/mL
same,Activity,Alternaria brassicicola [23],Active
same,EC50,Thanatephorus cucumeris [24],> 200 µg/mL
same,EC50,Pseudomonas [25],> 200 µg/mL
same,Activity,Pseudomonas [26],inactive
same,Activity,[27],inactive
same,EC50,Colletotrichum lagenaria [28],> 200 µg/mL
same,EC50,Cytospora ceratosperma [29],> 200 µg/mL
same,EC50,Penicillium digitatum [30],> 200 µg/mL
same,EC50,Nakataea oryzae [31],> 200 µg/mL
same,Activity,Thanatephorus cucumeris [32],Active
same,EC50,Phytophthora nicotianae [33],50 µg/mL
same,Activity,Nakataea oryzae [34],Active
same,EC50,Pyricularia oryzae [35],> 200 µg/mL
same,Activity,Phytophthora nicotianae [36],inactive
same,EC50,[37],> 200 µg/mL
same,Activity,Fusarium fujikuroi [38],inactive
same,EC50,Botrytis cinerea [39],> 200 µg/mL
same,inhibition,Pyricularia oryzae [40],inactive
same,Activity,Colletotrichum lagenaria [41],Active
same,Activity,Sclerotinia sclerotiorum [42],inactive
same,Activity,Pyricularia oryzae [43],Active
same,EC50,[44],> 200 µg/mL
